Results: ChEMBL document CHEMBL1122227, “Synthesis and antiarrhythmic and parasympatholytic properties of substituted phenols. 1. Heteroarylamine derivatives” (1983)
The source made the active and inactive calls. The calls are words filed in the database; no cut-off is given here.

Key:
Canis familiaris [1] = experiment: Active dose for antiarrhythmic activity in Harris dog; inactive to 22 mg/kg; assay type: functional, organism-based; set-up: dose 22 mg/kg; conditions: Canis lupus familiaris; Heart
[2] = biological target: Muscarinic acetylcholine receptor (Rattus norvegicus) (UniProt P08482+P08483+P08485+P08911+P10980); experiment: Percentage inhibition of field stimulated contraction guinea pig ileum (parasympatholytic activity)in presence of test compound (4 mg/L); assay type: functional, tissue-based; conditions: Cavia porcellus, target entry is the homologue from another species
Canis familiaris [3] = experiment: Active dose for antiarrhythmic activity in Harris dog; inactive to 30 mg/kg; assay type: functional, organism-based; set-up: dose 30 mg/kg; conditions: Canis lupus familiaris; Heart
Canis familiaris [4] = organism: Canis familiaris; experiment: Active dose for antiarrhythmic activity in Harris dog.; assay type: functional, Canis lupus familiaris, Heart
Canis familiaris [5] = experiment: Active dose for antiarrhythmic activity in Harris dog. (incomplete restoration of normal sinus rhythm up to 2 mg/kg when death occurred); low activity; assay type: functional, organism-based; set-up: dose 2 mg/kg; conditions: Canis lupus familiaris; Heart
Canis familiaris [6] = experiment: Active dose for antiarrhythmic activity in Harris dog.(partial restoration of normal sinus rhythm up to 9 mg/kg when death occurred); low activity; assay type: functional, organism-based; set-up: dose 9 mg/kg; conditions: Canis lupus familiaris; Heart
Canis familiaris [7] = experiment: Active dose for antiarrhythmic activity in Harris dog.(partial restoration of normal sinus rhythm up to 12 mg/kg when loss of muscle tone occurred); low activity; assay type: functional, organism-based; set-up: dose 12 mg/kg; conditions: Canis lupus familiaris
Canis familiaris [8] = experiment: Active dose for antiarrhythmic activity in Harris dog. (incomplete or no effect to restore sinus rhythm up to 30 mg/kg); low activity; assay type: functional, organism-based; set-up: dose 30 mg/kg; conditions: Canis lupus familiaris; Heart

SMILES	inhibition [2] [%]	Dose (Canis familiaris [4]) [mg/kg]	also measured
Oc1c(CN2CCCC2)ccc(Nc2ncnc3ccccc23)c1CN1CCCC1	21		DOSE (Canis familiaris [1]): inactive
Oc1ccc(Nc2ncnc3ccccc23)cc1	13		DOSE (Canis familiaris [3]): inactive
Oc1c(CN2CCCC2)cc(Nc2ccncc2)cc1CN1CCCC1	5	8.5	
COc1nnc(Nc2cc(CN3CCCC3)c(O)c(CN3CCCC3)c2)c2ccccc12	84		DOSE (Canis familiaris [5]): Partially active
Oc1c(CN2CCCC2)cc(Nc2ccnc3ccccc23)cc1CN1CCCC1	19		DOSE (Canis familiaris [6]): Partially active
Oc1ccc(Nc2nncc3ccccc23)cc1	23		DOSE (Canis familiaris [3]): inactive
Oc1ccccc1Nc1ncnc2ccccc12	48		DOSE (Canis familiaris [3]): inactive
Oc1c(CN2CCCC2)cc(Nc2ccnc3cc(Cl)ccc23)cc1CN1CCCC1	27		DOSE (Canis familiaris [7]): Partially active
Oc1c(CN2CCCC2)cc(Nc2ccc(Cl)nn2)cc1CN1CCCC1	40	10.5	
Oc1c(CN2CCCC2)cc(Nc2nncc3ccccc23)cc1CN1CCCC1	83	1.5	
Oc1c(CN2CCCC2)cc(Nc2ccnc3cc(C(F)(F)F)ccc23)cc1CN1CCCC1	36	3	
CN(C)Cc1cc(Nc2nncc3ccccc23)cc(CN(C)C)c1O	14	14	
Oc1ccc(Nc2ccc3ccccc3n2)cc1CN1CCCC1	72	11	
Cc1cc(Nc2cc(CN3CCCC3)c(O)c(CN3CCCC3)c2)c2ccccc2n1		11	
Oc1c(CN2CCCC2)cc(CNc2nnc(Cl)c3ccccc23)cc1CN1CCCC1	78	4.5	
Oc1c(CN2CCCC2)cc(Nc2ccc3ccccc3n2)cc1CN1CCCC1	50	6	
COc1cc2c(Nc3cc(CN4CCCC4)c(O)c(CN4CCCC4)c3)ncnc2c(OC)c1OC	14		DOSE (Canis familiaris [8]): Partially active
Clc1nnc(Nc2cc(CN3CCCC3)cc(CN3CCCC3)c2)c2ccccc12	93	3	
Oc1c(CN2CCCC2)cc(Nc2ncccn2)cc1CN1CCCC1	6		DOSE (Canis familiaris [7]): Partially active
Oc1c(CN2CCCC2)cc(Nc2ncnc3ccccc23)cc1CN1CCCC1 [CHANGROLIN]	43	10.3	
Oc1c(CN2CCCC2)cc(Nc2nccc3ccccc23)cc1CN1CCCC1	48	1.1	
Oc1ccc(Nc2nnc(Cl)c3ccccc23)cc1CN1CCCC1	65	17	
Oc1c(CN2CCCC2)cc(Nc2nnc(Cl)c3ccccc23)cc1CN1CCCC1	76	2.5	
CC(=O)Nc1cc(CN2CCCC2)c(O)c(CN2CCCC2)c1			DOSE (Canis familiaris [3]): inactive
Nc1cc(CN2CCCC2)c(O)c(CN2CCCC2)c1	3		DOSE (Canis familiaris [3]): inactive
